Source: ChEMBL document CHEMBL1130652, “Design, synthesis and biological activity of a pyrrolo [2,1-c][1,4]benzodiazepine (PBD)-distamycin hybrid” (Bioorg Med Chem Lett, 1998)

Assays:
K562 = experiment: In vitro effect on human leukemia K562 cell proliferation; type: functional, cell-based
Nucleic Acid = experiment: Inhibition of human estrogen receptor(ER) polymerase-chain reaction product; type: functional

| IC50 (K562) | IC50 (Nucleic Acid) | SMILES |
| --- | --- | --- |
| 1 µM | 50 µM | COC(=O)CCOc1cc2c(cc1OC)C(=O)N1CCC[C@H]1C=N2.Cn1cc(NC(=O)c2cc(NC(=O)c3cc(NC=O)cn3C)cn2C)cc1C(=O)NCCC(=N)N |
| 0.2 µM | 8 µM | COc1cc2c(cc1OCCC(=O)Nc1cc(C(=O)Nc3cc(C(=O)Nc4cc(C(=O)NCCC(=N)N)n(C)c4)n(C)c3)n(C)c1)N=C[C@@H]1CCCN1C2=O |
| 1 µM | > 300 µM | COC(=O)CCOc1cc2c(cc1OC)C(=O)N1CCC[C@H]1C=N2 |
| 5 µM | 50 µM | Cn1cc(NC(=O)c2cc(NC(=O)c3cc(NC=O)cn3C)cn2C)cc1C(=O)NCCC(=N)N [STALLIMYCIN] |
